The target in assay [1] is T1, human TLR8 (Homo sapiens, UniProt Q9NR97).
T1 construct: expressed in transfected cells
T1 sequence (Q9NR97 27-1041): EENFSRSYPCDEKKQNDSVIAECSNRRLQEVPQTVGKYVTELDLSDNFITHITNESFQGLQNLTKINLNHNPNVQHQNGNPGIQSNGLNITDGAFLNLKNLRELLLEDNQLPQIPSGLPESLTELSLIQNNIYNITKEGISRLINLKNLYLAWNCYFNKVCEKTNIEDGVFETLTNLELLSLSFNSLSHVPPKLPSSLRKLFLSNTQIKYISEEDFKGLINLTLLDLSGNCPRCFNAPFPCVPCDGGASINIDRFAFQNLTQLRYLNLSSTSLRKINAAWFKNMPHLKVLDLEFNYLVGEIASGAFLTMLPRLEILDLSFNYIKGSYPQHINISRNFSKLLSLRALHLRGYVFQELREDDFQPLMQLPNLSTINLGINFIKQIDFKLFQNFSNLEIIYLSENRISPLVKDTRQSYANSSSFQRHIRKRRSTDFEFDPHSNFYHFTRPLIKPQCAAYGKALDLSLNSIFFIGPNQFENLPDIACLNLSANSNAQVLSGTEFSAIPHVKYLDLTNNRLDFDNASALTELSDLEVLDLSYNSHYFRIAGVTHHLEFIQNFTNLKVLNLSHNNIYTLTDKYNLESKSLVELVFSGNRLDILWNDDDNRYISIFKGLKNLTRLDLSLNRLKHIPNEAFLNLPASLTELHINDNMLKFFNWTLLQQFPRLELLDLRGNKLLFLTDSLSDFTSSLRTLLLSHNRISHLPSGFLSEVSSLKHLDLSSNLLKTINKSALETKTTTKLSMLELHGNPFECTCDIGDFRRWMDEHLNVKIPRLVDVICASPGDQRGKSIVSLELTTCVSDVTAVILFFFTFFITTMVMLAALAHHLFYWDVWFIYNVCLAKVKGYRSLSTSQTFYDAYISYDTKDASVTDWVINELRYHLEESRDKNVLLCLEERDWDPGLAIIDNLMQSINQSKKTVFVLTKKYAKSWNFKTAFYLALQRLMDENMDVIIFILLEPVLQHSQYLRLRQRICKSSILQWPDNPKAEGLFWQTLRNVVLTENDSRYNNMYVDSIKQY
Description: HEK-Blue hTLR8 SEAP reporter gene inhibition assay. Particulars: hTLR8 HEK-Blue cells, TLR8 ligand 10 µM, 20 hours, SEAP by Quanti-blue; class symbols; read-out: HEK-Blue hTLR8 IC50. The format is cell-based. The essentials:
(§1)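 Compounds (final 0.001–36 µM) were added 15 min before stimulation with 10 µM TLR7 agonist Gardiquimod or 10 µM TLR8 ligand for 20 h. Read-out: SEAP from NF-κB/AP-1 reporter in hTLR7 (80,000 cells/well) or hTLR8 (60,000 cells/well) HEK-Blue cells, via Quanti-Blue; IC50 derived.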
Background: In a reporter assay the amount or activity of a reporter protein is the signal.

Assay [2] deals with T2, human TLR7 (Homo sapiens, UniProt Q9NYK1).
T2 sequence (Q9NYK1 27-1049): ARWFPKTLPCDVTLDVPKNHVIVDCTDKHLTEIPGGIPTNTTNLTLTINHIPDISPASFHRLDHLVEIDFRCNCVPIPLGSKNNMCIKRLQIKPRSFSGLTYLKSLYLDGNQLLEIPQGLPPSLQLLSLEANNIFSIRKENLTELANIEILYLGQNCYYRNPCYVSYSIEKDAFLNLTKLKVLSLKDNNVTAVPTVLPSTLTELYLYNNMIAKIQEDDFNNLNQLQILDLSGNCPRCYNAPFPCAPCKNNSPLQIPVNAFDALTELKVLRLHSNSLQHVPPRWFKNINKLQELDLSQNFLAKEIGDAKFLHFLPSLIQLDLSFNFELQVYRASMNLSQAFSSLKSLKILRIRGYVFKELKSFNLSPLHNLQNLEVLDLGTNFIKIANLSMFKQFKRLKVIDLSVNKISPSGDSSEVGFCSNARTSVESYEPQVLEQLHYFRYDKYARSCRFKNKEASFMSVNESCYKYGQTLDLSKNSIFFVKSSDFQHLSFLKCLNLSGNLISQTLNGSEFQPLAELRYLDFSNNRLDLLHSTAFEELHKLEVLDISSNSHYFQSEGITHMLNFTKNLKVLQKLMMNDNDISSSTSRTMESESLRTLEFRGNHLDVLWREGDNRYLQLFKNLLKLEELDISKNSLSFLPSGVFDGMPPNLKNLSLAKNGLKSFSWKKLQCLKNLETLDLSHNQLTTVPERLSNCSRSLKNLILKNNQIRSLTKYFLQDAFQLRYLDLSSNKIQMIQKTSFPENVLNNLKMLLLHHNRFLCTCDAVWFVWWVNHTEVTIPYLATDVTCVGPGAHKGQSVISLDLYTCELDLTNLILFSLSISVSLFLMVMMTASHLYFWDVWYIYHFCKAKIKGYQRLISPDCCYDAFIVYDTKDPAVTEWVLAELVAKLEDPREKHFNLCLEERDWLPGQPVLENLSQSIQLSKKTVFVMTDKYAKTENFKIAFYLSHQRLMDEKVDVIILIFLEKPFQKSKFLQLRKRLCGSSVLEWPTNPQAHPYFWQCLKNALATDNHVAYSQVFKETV
The experiment in a line: HEK-Blue hTLR7 SEAP reporter gene inhibition assay. The format is cell-based. Particulars: hTLR7 HEK-Blue cells, TLR7 ligand Gardiquimod 10 µM, 20 hours, SEAP by Quanti-blue; class symbols; read-out: HEK-Blue hTLR7 IC50. Put shortly:
as §1

With `CC1Cc2c(nn3c2CN(c2ccc(C#N)n4ncc(F)c24)C[C@H]3C)CN1` (stereo partly drawn) [Example I-30, 4-((4R)-4,9-dimethyl-3,4,7,8,9,10-hexahydropyrido[3',4':3,4]pyrazolo[1,5-a]pyrazin-2(1H)-yl)-3-fluoropyrazolo[1,5-a]pyridine-7-carbonitrile], the concentration for half-maximal inhibition (IC50) (usually the concentration that gives 50% inhibition) was less than 100 nM in assay [1] and less than 50 nM in assay [2].
The corresponding values for `C[C@@H]1CN(c2ccc(C#N)n3ncc(F)c23)Cc2c3c(nn21)CC(C)(N)CC3` (single isomer, unassigned) [Example I-71a] are less than 100 nM and less than 50 nM.
With `C[C@@H]1CN(c2ccc(C#N)n3ncc(F)c23)Cc2c3c(nn21)CN(CC(=O)N1CC(F)(F)C1)[C@@H](C)C3` [Example I-140, 4-((4R,9S)-8-(2-(3,3-difluoroazetidin-1-yl)-2-oxoethyl)-4,9-dimethyl-3,4,7,8,9,10-hexahydropyrido[3',4':3,4]pyrazolo[1,5-a]pyrazin-2(1H)-yl)-3-fluoropyrazolo[1,5-a]pyridine-7-carbonitrile], the IC50 in assay [1] was more than 100 nM; in assay [2], less than 50 nM.
The corresponding values for `CC1Cc2c(nn3c2CN(c2ccc(C#N)n4ncc(F)c24)C[C@H]3C)C(C)N1` (single isomer, unassigned) [Example I-59b] are less than 100 nM and less than 50 nM.
For “4-((4R,9S)-8-(cyanomethyl)-4,9-dimethyl-3,4,7,8,9,10-hexahydropyrido[3',4':3,4] pyrazolo[1,5-a]pyrazin-2(1H)-yl)-3-fluoropyrazolo[1,5-a]pyridine-7-carbonitrile [Example I-124]” the same measures were less than 100 nM and less than 50 nM.
The corresponding values for `C[C@@H]1CN(c2ccc(C#N)n3ncc(F)c23)Cc2c3c(nn21)CCNC3` [Example I-2, (R)-3-fluoro-4-(7-methyl-1,3,4,7,8,10-hexahydropyrido[4',3':3,4]pyrazolo[1,5-a]pyrazin-9(2H)-yl)pyrazolo[1,5-a]pyridine-7-carbonitrile] are less than 100 nM and less than 50 nM.
Consider `CC1Cc2c(nn3c2CN(c2ccc(C#N)n4ncc(F)c24)C[C@H]3C)C(C)N1` (single isomer, unassigned) [Example I-88a], for which the IC50 in assay [1] is less than 100 nM; in assay [2], less than 50 nM.
For `CC1Cc2nn3c(c2CN1)CN(c1ccc(C#N)n2ncc(F)c12)C[C@H]3C` (stereo partly drawn) [Example I-11, 4-((7R)-3,7-dimethyl-1,3,4,7,8,10-hexahydropyrido[4',3':3,4]pyrazolo[1,5-a]pyrazin-9(2H)-yl)-3-fluoropyrazolo[1,5-a]pyridine-7-carbonitrile] the same measures were less than 100 nM and less than 50 nM.
The corresponding values for `C[C@@H]1CN(c2ccc(C#N)n3ncc(F)c23)Cc2c3c(nn21)CNC(C)(C)C3` [Example I-83, (R)-3-Fluoro-4-(4,9,9-trimethyl-3,4,7,8,9,10-hexahydropyrido[3',4':3,4]pyrazolo [1,5-a]pyrazin-2(1H)-yl)pyrazolo[1,5-a]pyridine-7-carbonitrile] are less than 100 nM and less than 50 nM.
The corresponding values for `C[C@@H]1CN(c2ccc(C#N)n3ncc(F)c23)Cc2c3c(nn21)CN(C[C@H](O)CO)[C@@H](C)C3` [Example I-160, 4-((4R,9S)-8-((S)-2,3-dihydroxypropyl)-4,9-dimethyl-3,4,7,8,9,10-hexahydropyrido[3',4':3,4]pyrazolo[1,5-a]pyrazin-2(1H)-yl)-3-fluoropyrazolo[1,5-a]pyridine-7-carbonitrile] are more than 100 nM and more than 50 nM.
For the molecule `C[C@@H]1CN(c2ccc(C#N)n3ncc(F)c23)Cc2c3c(nn21)CCC(C)(N)C3` (single isomer, unassigned) [Example I-80b], the values for the IC50 in assay [1] and in assay [2] were more than 100 nM and more than 50 nM, respectively.
With `C[C@@H]1CN(c2ccc(C#N)n3ncc(F)c23)Cc2c3c(nn21)CN(CC(C)(C)O)[C@@H](C)C3` [Example I-117, 3-Fluoro-4-((4R,9S)-8-(2-hydroxy-2-methylpropyl)-4,9-dimethyl-3,4,7,8,9,10-hexahydropyrido[3',4':3,4]pyrazolo[1,5-a]pyrazin-2(1H)-yl)pyrazolo[1,5-a]pyridine-7-carbonitrile], the 50% inhibitory concentration (IC50) was less than 100 nM in assay [1] and less than 50 nM in assay [2].
Regarding `C[C@@H]1CN(c2ccc(C#N)n3ncc(F)c23)Cc2c3c(nn21)CN(CC(=O)N1C[C@H](C)N[C@@H](C)C1)[C@@H](C)C3` [Example I-144, 4-((4R,9S)-8-(2-((3S,5S)-3,5-dimethylpiperazin-1-yl)-2-oxoethyl)-4,9-dimethyl-3,4,7,8,9,10-hexahydropyrido[3',4':3,4]pyrazolo[1,5-a]pyrazin-2(1H)-yl)-3-fluoropyrazolo[1,5-a]pyridine-7-carbonitrile], the figures for the IC50 in assay [1] and in assay [2] were more than 100 nM and less than 50 nM, respectively.
`CC(C(N)=O)N1Cc2nn3c(c2C[C@@H]1C)CN(c1ccc(C#N)n2ncc(F)c12)C[C@H]3C` (stereo partly drawn) [Example I-156, 2-((4R,9S)-2-(7-cyano-3-fluoropyrazolo[1,5-a]pyridin-4-yl)-4,9-dimethyl-1,2,3,4,9,10-hexahydropyrido[3',4':3,4]pyrazolo[1,5-a]pyrazin-8(7H)-yl)propanamide]: the IC50 in assay [1] was more than 100 nM; in assay [2], more than 50 nM.
For `CC(C)C1Cc2c(nn3c2CN(c2ccc(C#N)n4ncc(F)c24)C[C@H]3C)CN1` (stereo partly drawn) [Example I-60, 3-Fluoro-4-((4R)-9-isopropyl-4-methyl-3,4,7,8,9,10-hexahydropyrido[3',4':3,4]pyrazolo[1,5-a]pyrazin-2(1H)-yl)pyrazolo[1,5-a]pyridine-7-carbonitrile] the same measures were more than 100 nM and less than 50 nM.
The corresponding values for “3-Fluoro-4-((4R,9S)-8-(2-((R)-3-fluoropyrrolidin-1-yl)-2-oxoethyl)-4,9-dimethyl-3,4,7,8,9,10-hexahydropyrido[3',4':3,4]pyrazolo[1,5-a]pyrazin-2(1H)-yl)pyrazolo[1,5-a]pyridine-7-carbonitrile [Example I-149]” are more than 100 nM and less than 50 nM.
With “3-Fluoro-4-((4R,9S)-8-(2-((S)-3-fluoropyrrolidin-1-yl)-2-oxoethyl)-4,9-dimethyl-3,4,7,8,9,10-hexahydropyrido[3',4':3,4]pyrazolo[1,5-a]pyrazin-2(1H)-yl)pyrazolo[1,5-a]pyridine-7-carbonitrile [Example I-153]”, the figures for the IC50 in assay [1] and in assay [2] were more than 100 nM and less than 50 nM, respectively.
For the molecule `CC1Cc2c(nn3c2CN(c2ccc(C#N)n4ncc(F)c24)C[C@H]3C)C(C)N1` (single isomer, unassigned) [Example I-88b], the IC50 is more than 100 nM in assay [1] and less than 50 nM in assay [2].

(Values after patent EP4644396A1 (Visionpharma (Nantong) Co., Ltd, priority 2022, dated 2024).)
